Results published in US20050222158A1, “Method of treating migraine headaches using calcitonin gene related peptide mimetics” (priority 2004, published 2005).

Molecular target: T1, human CGRP receptor (Homo sapiens, UniProt O60894+Q16602)
T1 construct: SK-N-MC cells that endogenously express the human CGRP receptor; endogenous in cells; host or cells: SK-N-MC cells (membrane homogenates)
Assay: [125I]-CGRP radioligand binding assay, SK-N-MC cell homogenates
Settings: 40 pM [125I]-CGRP, room temperature
Experimental: Tissue culture. SK-N-MC cells were grown at 37° C. in 5% CO2 as a monolayer in medium consisting of MEM with Earle's salts and L-glutamine (Gibco) supplemented with 10% fetal bovine serum (Gibco). Radioligand binding assays. Cells were rinsed twice with phosphate-buffered saline (155 mM NaCl, 3.3 mM Na2HPO4, 1.1 mM KH2PO4, pH 7.4), and incubated for 5-10 min. at 4° C. in hypotonic lysis buffer consisting of 10 mM Tris (pH 7.4) and 5 mM EDTA. Cells were transferred from plates to polypropylene tubes (16×100 mm), homogenized and centrifuged at 32,000×g for 30 min. Pellets were resuspended in buffer consisting of 50 mM Tris (pH 7.4) and 1 mM EDTA, homogenized, and centrifuged again at 32,000×g for 30 min. Pellets were resuspended in 100 mM Tris-Cl pH 7.5, 10 mM MgCl2, 0.1% mammalian protease inhibitor cocktail (Sigma) and stored at −80° C. until needed. On the day of an experiment, homogenates were thawed and homogenized again. Binding of [^125I]-CGRP (NEN) was carried out in buffer containing 50 mM Tris-Cl pH 7.5, 5 mM MgCl2, 0.5% BSA. Homogenates (3.5 μg protein/well) were incubated with competitor compounds (solubilized in 100% DMSO at 100× their final assay concentrations) for one hour at room temperature. Then [^125I]-CGRP was added (40 pM final concentration) and the reaction incubated for one additional hour at room temperature. […]

T1 sequence (Q16602 23-461): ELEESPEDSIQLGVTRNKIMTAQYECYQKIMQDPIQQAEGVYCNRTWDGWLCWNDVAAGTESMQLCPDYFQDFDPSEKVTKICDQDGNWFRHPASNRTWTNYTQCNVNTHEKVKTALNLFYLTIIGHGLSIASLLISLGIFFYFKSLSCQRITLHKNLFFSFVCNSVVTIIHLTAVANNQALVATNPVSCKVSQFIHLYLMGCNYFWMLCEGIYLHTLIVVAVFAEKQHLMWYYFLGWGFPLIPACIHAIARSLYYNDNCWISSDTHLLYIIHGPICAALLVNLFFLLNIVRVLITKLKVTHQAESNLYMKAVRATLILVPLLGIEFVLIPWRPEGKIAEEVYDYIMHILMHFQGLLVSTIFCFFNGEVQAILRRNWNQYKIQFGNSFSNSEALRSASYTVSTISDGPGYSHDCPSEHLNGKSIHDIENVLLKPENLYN
T1 sequence (O60894 27-148): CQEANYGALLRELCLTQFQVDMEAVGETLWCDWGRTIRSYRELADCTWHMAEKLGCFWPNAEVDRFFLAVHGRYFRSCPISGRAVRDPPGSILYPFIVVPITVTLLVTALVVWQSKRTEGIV

- IC50: 5160 nM
Compound: CC(=O)c1ccc(NC(=O)N2CCC(=O)N3[C@@H]2CN(CCc2cccc(F)c2)C(=O)[C@@H]3CC(=O)OC2[C@H]3C[C@@H]4C[C@@H](C[C@H]2C4)C3)cc1 (stereo partly drawn) [Compound 29, {1-(4-Acetyl-phenylcarbamoyl)-(6S,9aS)-8-[2-(3-fluoro-phenyl)-ethyl]-4,7-dioxo-octahydro-pyrazino[1,2a]pyrimidin-6-yl}-acetic acid adamantan-2-yl ester]
